Measured values reported in patent publication US20090098529A1 (priority 2006, published 2009).

Test system: GI-101A tumors
Parameters: species or system nude mice
Details: mouse, in vivo

| Compound | Effect on tumor growth |
| --- | --- |
| N.N.[Cl][Pt][Cl] [Cisplatin, cis-diamminedichloroplatinum] | decreased the rate of tumor growth, but did not shrink tumors |
| COc1cccc2c1C(=O)c1c(O)c3c(c(O)c1C2=O)C[C@@](O)(C(=O)CO)C[C@@H]3O[C@H]1C[C@H](N)[C@H](O)[C@H](C)O1 [Doxorubicin, doxorubicin] | did not have any effect on the rate of tumor growth |
